# Laboratory results taken from patent US6458767B1, “Use of peptides inhibitory for thrombospondin dependent TGF-β activation in the treatment of kidney disease” (The UAB Research Foundation, priority 1994, dated 2002).
# Experiments:
# TSP1 null mice = settings: literature; cited from earlier work
# [1] = tested on: rats with anti-Thy1 disease; assay: Functional parameters (proteinuria, creatinine clearance, blood urea nitrogen, systolic blood pressure) in the anti-Thy1 model; type: in vivo, rat
# Source text: (§1) Experimental design. Experimental mesangial proliferative glomerulonephritis was induced using the monoclonal mouse anti-Thy1 antibody OX-7. Peptides were continuously infused intravenously (i.v.) via jugular vein using osmotic minipumps starting sixteen hours after disease induction. The effects of the hexapeptide AAWSHW (SEQ ID NO:22) (that interferes with the TSP1-mature TGF-β interaction) or the LSKL-peptide (SEQ ID NO:21) (that blocks the TSP1-LAP interaction) were compared to a control peptide (SLLK) in the anti-Thy1 model. Tissues from different time points (days three, five, eight) of this experiment were analyzed in regard to mesangiolysis, macrophage-influx, MC-proliferation, MC-activation, microaneurysm and matrix formation, GEN proliferation, TSP1, TGF-β1 and 2, as well as TGF-βRI and RII. Functional parameters such as blood pressure, proteinuria, and creatinine clearance were also determined. On day eight, glomerular secretion of active TGF-β was determined in individual animals by incubating isolated glomeruli for twenty-four hours in DMEM and measuring TGF-β activity in glomerular supernatants using the NRK-bioassay.
# (§2) Animal model Experimental mesangial proliferative glomerulonephritis (anti-Thy1 model) was induced in Sprague Dawley rats (180-200 g; Charles River, Sulzfeld, Germany) by a single injection of 1 mg/kg of the mouse monoclonal anti-Thy1 antibody OX-7 (European Collection of Animal Cell Culture, Salisbury, England). In this animal model, complete anti-Thy1 antibody binding occurs within an hour (Johnson et al. (1991) Am. J. Pathol. 138 (2), 313-21). To avoid potential interference of the LAP-peptides with anti-Thy1 antibody binding and subsequent mesangiolysis, the peptide treatment was started sixteen hours after disease induction, when binding of the anti-Thy1 antibody to the mesangium and subsequent mesangiolysis had already occurred. The peptides used in this study were synthesized, purified, and analyzed as described elsewhere (Crawford et al. (1998) Cell 93, 1159-1170).
# (§3) Renal biopsies as described previously (Hugo et al. (1997) J. Clin. Invest. 100, 786-794) were performed on days three and five, and the experiment was finished on day eight. To determine DNA incorporation into proliferating cells, each animal was injected intravenously with BrdU (50 mg/kg bw) ninety minutes before the second survival biopsy was taken on day five (peak of MC proliferation). Renal biopsies were fixed in methyl Carnoy's, 10% formalin and/or OCT and snap frozen. A twenty-four hour urine collection for measurement of protein and creatinine was done from day seven to eight, when maximal proteinuria occurs in this model (unpublished observation). Blood pressure measurements were done twice before and twice after disease induction. In renal biopsies, the frequency of glomerular microaneurysms, the number of infiltrating macrophages, the number of proliferating MC, the expression of the contractile protein α-sm actin as a marker of MC-activation, and the expression of TGF-β1, TGF-β2, TGF-βRI, TGF-βRII, TSP1, as well as of extracellular matrix proteins such as collagen I, collagen IV and fibronectin were determined. For TGF-β activity measurements in individual animals on day eight, glomeruli were isolated by differential sieving (Johnson et al. (1991) Am. J. Pathol. 138 (2), 313-21) and counted using five aliquots. Glomerular isolates were discarded if purity was less than 95%. 8000 glomeruli/ml were incubated in DMEM at 37° C. After a twenty-four hour incubation period, glomerular supernatants were stored by −70° C. until TGF-β activity measurements were done.
# (§4) Peptide infusion. All peptides (at a concentration of 3.5 mg/ml) were continuously infused for seven days via a catheter in the right jugular vein using osmotic minipumps (Alzet Corp./Charles River, Sulzfeld, Germany). […]
# [2] = tested on: rats with anti-Thy1 disease; assay: Mesangiolysis, microaneurysm formation and GEN-proliferation in the anti-Thy1 model; type: in vivo, rat
# Source text: as §1, §2, §3, §4
# [3] = tested on: rats with anti-Thy1 disease; assay: Glomerular MC-proliferation, MC-activation and macrophage influx in the anti-Thy1 model; type: in vivo, rat
# Source text: as §1, §2, §3, §4
# [4] = tested on: activation of TGF-β by TSP1; settings: background, literature; cited from earlier work
# [5] = tested on: rats with anti-Thy1 disease; assay: Glomerular immunostaining score for TGF-β1, TGF-β2, TGF-βRI, TGF-βRII and TSP1 in the anti-Thy1 model; type: in vivo, rat
# Source text: as §1, §2, §3, §4
# [6] = tested on: rats with anti-Thy1 disease; assay: Glomerular extracellular matrix formation (Masson's Trichrome, collagen I, collagen IV, fibronectin stains) in the anti-Thy1 model; type: in vivo, rat
# Source text: as §1, §2, §3, §4
# TGF-β = assay: Glomerular secretion of active TGF-β (NRK-bioassay of supernatants of isolated glomeruli) in anti-Thy1 rats; type: in vivo, rat
# Source text: as §1, §2
# as §3, with “After a twenty-four hour incubation period, glomerular supernatants were stored by −70° C. until TGF-β activity measurements were done.” left out
substance,measurement,setting,value
"KRFK: TGF-β activating peptide, KRFK amino acid sequence of the TSP1 molecule (listed as Homo sapiens)",histological changes in TSP1 null mice,TSP1 null mice,reverted toward wild type
Leu-Ser-Lys-Leu (LSKL; listed as Homo sapiens),Proteinuria (mg/24 hours),[1]; day 8 (urine collection day seven to eight),24 ± 20 mg/24 hours
same,twenty-four hour proteinuria,[1]; days seven to eight,24±20 mg/twenty-four hours
same,Blood urea nitrogen,"[1]; rat, in vivo",33.2 ± 9.4 mg/dL
same,Glomerular Microaneurysm (in percent),[2]; day 3,16.7 ± 10.0%
same,Glomerular Microaneurysm (in percent),[2]; day 5,13.8 ± 19.9%
same,Glomerular Microaneurysm (in percent),[2]; day 8,2.2 ± 2.7%
same,Glomerular GEN-proliferation (double staining for RECA-1 and PCNA),[2]; day three,2.0±0.5
same,mesangiolysis scores,"[2]; day three, scale 0-IV",2.56±0.3
same,MC-activation α-sm actin (score 0-4),[3]; day 3,0.6 ± 0.3 score 0-4
same,MC-proliferation (OX-7 + /PCNA + cells/glomerulus),[3]; day 3,3.3 ± 0.6 cells/glomerulus
same,Macrophages (ED-1 + cells/glomerulus),[3]; day 3,4.3 ± 2.0 cells/glomerulus
same,MC-activation α-sm actin (score 0-4),[3]; day 5,2.5 ± 0.4 score 0-4
same,MC-proliferation (OX-7 + /BrdU + cells/glomerulus),[3]; day 5,3.9 ± 0.6 cells/glomerulus
same,MC-proliferation (OX-7 + /PCNA + cells/glomerulus),[3]; day 5,7.9 ± 1.0 cells/glomerulus
same,Macrophages (ED-1 + cells/glomerulus),[3]; day 5,1.0 ± 0.6 cells/glomerulus
same,MC-activation α-sm actin (score 0-4),[3]; day 8,2.4 ± 0.5 score 0-4
same,MC-proliferation (OX-7 + /PCNA + cells/glomerulus),[3]; day 8,4.6 ± 0.5 cells/glomerulus
same,Macrophages (ED-1 + cells/glomerulus),[3]; day 8,0.7 ± 0.5 cells/glomerulus
same,MC activation (de novo expression of α-sm-actin),[3]; in words,did not significantly alter
same,block of activation of TGF-β by TSP1,[4],able to block activation of TGF-β by TSP1
same,TGF-β1 (score 0-4),[5]; day 3,0.1 ± 0.1 score 0-4
same,TGF-β2 (score 0-4),[5]; day 3,0.2 ± 0.1 score 0-4
same,TGF-βRI (score 0-4),[5]; day 3,0.2 ± 0.2 score 0-4
same,TGF-βRII (score 0-4),[5]; day 3,0.2 ± 0.1 score 0-4
same,TSP I (score 0-4),[5]; day 3,0.3 ± 0.2 score 0-4
same,TGF-β1 (score 0-4),[5]; day 5,1.8 ± 0.6 score 0-4
same,TGF-β2 (score 0-4),[5]; day 5,1.2 ± 0.6 score 0-4
same,TGF-βRI (score 0-4),[5]; day 5,1.4 ± 0.3 score 0-4
same,TGF-βRII (score 0-4),[5]; day 5,1.3 ± 0.3 score 0-4
same,TSP I (score 0-4),[5]; day 5,1.4 ± 0.6 score 0-4
same,TGF-β1 (score 0-4),[5]; day 8,1.7 ± 0.6 score 0-4
same,TGF-β2 (score 0-4),[5]; day 8,0.6 ± 0.6 score 0-4
same,TGF-βRI (score 0-4),[5]; day 8,1.4 ± 0.4 score 0-4
same,TGF-βRII (score 0-4),[5]; day 8,0.9 ± 0.6 score 0-4
same,TSP I (score 0-4),[5]; day 8,0.5 ± 0.3 score 0-4
same,Matrix Collagen 1 (score 0-4),[6]; day 3,0.1 ± 0.1 score 0-4
same,Matrix Collagen IV (score 0-4),[6]; day 3,1.0 ± 0.2 score 0-4
same,Matrix Fibronectin (score 0-4),[6]; day 3,1.2 ± 0.4 score 0-4
same,Matrix Trichrome (score 0-3),[6]; day 3,0.4 ± 0.2 score 0-3
same,Matrix Collagen 1 (score 0-4),[6]; day 5,0.7 ± 0.4 score 0-4
same,Matrix Collagen IV (score 0-4),[6]; day 5,1.9 ± 0.3 score 0-4
same,Matrix Fibronectin (score 0-4),[6]; day 5,1.9 ± 0.6 score 0-4
same,Matrix Trichrome (score 0-3),[6]; day 5,0.7 ± 0.2 score 0-3
same,Matrix Collagen 1 (score 0-4),[6]; day 8,0.8 ± 0.5 score 0-4
same,Matrix Collagen IV (score 0-4),[6]; day 8,1.2 ± 0.4 score 0-4
same,Matrix Fibronectin (score 0-4),[6]; day 8,0.9 ± 0.6 score 0-4
same,Matrix Trichrome (score 0-3),[6]; day 8,1.2 ± 0.3 score 0-3
same,extracellular matrix formation as determined by Trichrome staining,"[6]; day eight, in words",markedly suppressed
same,"glomerular accumulation of collagen I, collagen IV and fibronectin by immunohistochemistry","[6]; time course of anti-Thy1 disease, in words",reduced glomerular accumulation of all three extracellular matrix proteins
same,Active TGF-β (colonies > 62 um),"TGF-β; day 8 glomeruli, 24 h supernatant, NRK-bioassay, continuous i.v. peptide infusion",154 ± 50 colonies > 62 um
same,glomerular secretion of active TGF-β compared to control peptide (SLLK) treated rats,"TGF-β; day eight glomeruli, p<0.01",markedly reduced
